Measured values as given in PMC5218480 (PLoS ONE, 2017).

Test system: MV-4-11 cells
Assay: Gene expression microarray analysis (Affymetrix PrimeView) and GSEA
Type: cell-based, human
Set-up: RFU PODN (11730768_x_at) / Fold change /veh PODN (11730768_x_at) / RFU LINC00158 (11744669_a_at) / Fold change /veh LINC00158 (11744669_a_at) / RFU DUSP10 (11751237_a_at) / Fold change /veh DUSP10 (11751237_a_at) / RFU ID3 (11757404_x_at) / Fold change /veh ID3 (11757404_x_at) / RFU PLEKHG5 (11737974_s_at) / Fold change /veh PLEKHG5 (11737974_s_at) / RFU LRRC4B (11730491_at) / Fold change /veh LRRC4B (11730491_at) / RFU GIMAP4 (11747438_a_at) / Fold change /veh GIMAP4 (11747438_a_at) / RFU KRT8 (11758183_x_at) / Fold change /veh KRT8 (11758183_x_at) / RFU CNN1 (11734310_a_at) / Fold change /veh CNN1 (11734310_a_at) / RFU VPS37D (11726825_at) / Fold change /veh VPS37D (11726825_at) / RFU C10orf10 (11716522_x_at) / Fold change /veh C10orf10 (11716522_x_at) / RFU KIR2DL2 /// KIR2DL4 /// KIR2DL5A /// KIR2DL5B /// KIR2DS1 /// KIR2DS2 /// KIR2DS3 /// KIR2DS4 /// KIR3DL3 /// KIR3DL3 /// KIR3DS1 (11738374_at) / Fold change /veh KIR2DL2 /// KIR2DL4 /// KIR2DL5A /// KIR2DL5B /// KIR2DS1 /// KIR2DS2 /// KIR2DS3 /// KIR2DS4 /// KIR3DL3 /// KIR3DL3 /// KIR3DS1 (11738374_at) / RFU C1QL1 (11718748_at) / Fold change /veh C1QL1 (11718748_at) / RFU TMPRSS4 (11747572_a_at) / Fold change /veh TMPRSS4 (11747572_a_at) / RFU HAMP (11756126_x_at) / Fold change /veh HAMP (11756126_x_at) / RFU RNFT2 (11725882_a_at) / Fold change /veh RNFT2 (11725882_a_at) / RFU NR4A2 (11747474_a_at) / Fold change /veh NR4A2 (11747474_a_at) / RFU ABCC12 (11746883_a_at) / Fold change /veh ABCC12 (11746883_a_at) / RFU TMEM136 (11760407_x_at) / Fold change /veh TMEM136 (11760407_x_at) / RFU CLDN22 /// WWC2 (11732394_at) / Fold change /veh CLDN22 /// WWC2 (11732394_at) / RFU HLA-DPB1 (11760878_x_at) / Fold change /veh HLA-DPB1 (11760878_x_at) / RFU SPINT1 (11716480_a_at) / Fold change /veh SPINT1 (11716480_a_at) / RFU GAP43 (11754022_s_at) / Fold change /veh GAP43 (11754022_s_at) / RFU A4GNT (11735810_at) / Fold change /veh A4GNT (11735810_at) / RFU PRB3 (11715151_x_at) / Fold change /veh PRB3 (11715151_x_at) / RFU TUBB4B (11761932_at) / Fold change /veh TUBB4B (11761932_at) / RFU CAPN14 (11732068_a_at) / Fold change /veh CAPN14 (11732068_a_at) / RFU TMCC2 (11721928_a_at) / Fold change /veh TMCC2 (11721928_a_at) / RFU IRGQ (11745062_a_at) / Fold change /veh IRGQ (11745062_a_at) / RFU FAM174B (11720279_a_at) / Fold change /veh FAM174B (11720279_a_at) / RFU TMPRSS4 (11748680_a_at) / Fold change /veh TMPRSS4 (11748680_a_at) / RFU FAM212B (11763350_a_at) / Fold change /veh FAM212B (11763350_a_at) / RFU PLEKHG5 (11743358_a_at) / Fold change /veh PLEKHG5 (11743358_a_at) / RFU ZSCAN30 (11745921_a_at) / Fold change /veh ZSCAN30 (11745921_a_at) / RFU CMKLR1 (11741424_a_at) / Fold change /veh CMKLR1 (11741424_a_at) / RFU LOC101060620 /// MAPK8IP1 (11723275_at) / Fold change /veh LOC101060620 /// MAPK8IP1 (11723275_at) / RFU SPTSSB (11747773_x_at) / Fold change /veh SPTSSB (11747773_x_at) / RFU PRSS12 (11739890_at) / Fold change /veh PRSS12 (11739890_at) / RFU BIN1 (11741810_x_at) / Fold change /veh BIN1 (11741810_x_at) / RFU WNT11 (11732464_a_at) / Fold change /veh WNT11 (11732464_a_at) / RFU C10orf10 (11716521_a_at) / Fold change /veh C10orf10 (11716521_a_at) / RFU C5orf56 (11738089_at) / Fold change /veh C5orf56 (11738089_at) / RFU CYB561 (11721691_x_at) / Fold change /veh CYB561 (11721691_x_at) / RFU ANKRD19P (11752326_a_at) / Fold change /veh ANKRD19P (11752326_a_at) / RFU OR2T12 /// OR2T33 /// OR2T8 (11738714_s_at) / Fold change /veh OR2T12 /// OR2T33 /// OR2T8 (11738714_s_at) / RFU VCAN (11748164_a_at) / Fold change /veh VCAN (11748164_a_at) / RFU JSRP1 (11732532_at) / Fold change /veh JSRP1 (11732532_at) / RFU KRTAP10-11 (11738290_x_at) / Fold change /veh KRTAP10-11 (11738290_x_at) / RFU MYO3A (11730013_a_at) / Fold change /veh MYO3A (11730013_a_at) / RFU EBF3 (11725865_a_at) / Fold change /veh EBF3 (11725865_a_at) / RFU CAMK2N1 (11719241_x_at) / Fold change /veh CAMK2N1 (11719241_x_at) / RFU C5orf56 (11738088_a_at) / Fold change /veh C5orf56 (11738088_a_at) / RFU OLFML3 (11715873_a_at) / Fold change /veh OLFML3 (11715873_a_at) / RFU LOC100653217 /// NTM (11731650_a_at) / Fold change /veh LOC100653217 /// NTM (11731650_a_at) / RFU MAPK11 (11762145_a_at) / Fold change /veh MAPK11 (11762145_a_at) / RFU FIZ1 (11724087_x_at) / Fold change /veh FIZ1 (11724087_x_at) / RFU OASL (11726364_x_at) / Fold change /veh OASL (11726364_x_at) / RFU SOX15 (11748057_x_at) / Fold change /veh SOX15 (11748057_x_at) / RFU CD79A (11719716_a_at) / Fold change /veh CD79A (11719716_a_at) / RFU HIST1H1D (11736915_at) / Fold change /veh HIST1H1D (11736915_at) / RFU CASKIN2 (11723855_a_at) / Fold change /veh CASKIN2 (11723855_a_at) / RFU LOC730098 (11760151_x_at) / Fold change /veh LOC730098 (11760151_x_at) / RFU OR4N2 (11742367_at) / Fold change /veh OR4N2 (11742367_at) / RFU PRRT2 (11749266_a_at) / Fold change /veh PRRT2 (11749266_a_at) / RFU SNX32 (11753110_a_at) / Fold change /veh SNX32 (11753110_a_at) / RFU CDHR5 (11726645_a_at) / Fold change /veh CDHR5 (11726645_a_at) / RFU RCAN1 (11760418_a_at) / Fold change /veh RCAN1 (11760418_a_at) / RFU FAM167A (11723789_a_at) / Fold change /veh FAM167A (11723789_a_at) / RFU FAM26E (11764081_at) / Fold change /veh FAM26E (11764081_at) / RFU ISYNA1 (11749810_s_at) / Fold change /veh ISYNA1 (11749810_s_at) / RFU ACY1 (11761880_at) / Fold change /veh ACY1 (11761880_at) / RFU 11764098_at / Fold change /veh 11764098_at / RFU SAMD14 (11745864_x_at) / Fold change /veh SAMD14 (11745864_x_at) / RFU NPB (11741838_a_at) / Fold change /veh NPB (11741838_a_at) / RFU TMPRSS6 (11731388_a_at) / Fold change /veh TMPRSS6 (11731388_a_at) / RFU KRTAP10-2 (11738614_at) / Fold change /veh KRTAP10-2 (11738614_at) / RFU ARHGAP8 /// PRR5-ARHGAP8 (11727945_x_at) / Fold change /veh ARHGAP8 /// PRR5-ARHGAP8 (11727945_x_at) / RFU KRTAP5-7 /// NADSYN1 (11734609_at) / Fold change /veh KRTAP5-7 /// NADSYN1 (11734609_at) / RFU RASL12 (11751679_a_at) / Fold change /veh RASL12 (11751679_a_at) / RFU CDKN2B (11736163_a_at) / Fold change /veh CDKN2B (11736163_a_at) / RFU PRF1 (11729649_at) / Fold change /veh PRF1 (11729649_at) / RFU, ZNF638 /// ZNF638-IT1 / Fold change vs veh, ZNF638 /// ZNF638-IT1 / RFU, PANK3 / Fold change vs veh, PANK3 / RFU, SH3YL1 / Fold change vs veh, SH3YL1 / RFU, ZEB2 / Fold change vs veh, ZEB2 / RFU, NRIP1 / Fold change vs veh, NRIP1 / RFU, PTTG1IP / Fold change vs veh, PTTG1IP / RFU, CAPN2 / Fold change vs veh, CAPN2 / RFU, MED14 / Fold change vs veh, MED14 / RFU, SNORA58 / Fold change vs veh, SNORA58 / RFU, C1orf63 / Fold change vs veh, C1orf63 / RFU, LRRFIP1 / Fold change vs veh, LRRFIP1 / RFU, NDUFAF7 / Fold change vs veh, NDUFAF7 / RFU, SLC12A2 / Fold change vs veh, SLC12A2 / RFU, IBTK / Fold change vs veh, IBTK / RFU, ESF1 / Fold change vs veh, ESF1 / Fold change vs veh, TMEM50B / RFU, TAOK1 / Fold change vs veh, TAOK1 / RFU, ACBD3 / Fold change vs veh, ACBD3 / RFU, TMA16 / Fold change vs veh, TMA16 / RFU, RWDD3 / Fold change vs veh, RWDD3 / RFU, BCAT1 / Fold change vs veh, BCAT1 / RFU, EDEM3 / Fold change vs veh, EDEM3 / RFU, TMEM33 / Fold change vs veh, TMEM33 / RFU, WDR75 / Fold change vs veh, WDR75 / RFU, AHCTF1 / Fold change vs veh, AHCTF1 / RFU, TFRC / Fold change vs veh, TFRC / RFU, ZDHHC17 / Fold change vs veh, ZDHHC17 / RFU, NOM1 / Fold change vs veh, NOM1 / RFU, ARL8B / Fold change vs veh, ARL8B / RFU, ZBTB11 / Fold change vs veh, ZBTB11 / RFU, TAMM41 / Fold change vs veh, TAMM41 / RFU, KIAA1704 /// LOC100996395 / Fold change vs veh, KIAA1704 /// LOC100996395 / RFU, ING1 / Fold change vs veh, ING1 / RFU, TRMT61B / Fold change vs veh, TRMT61B / RFU, FUBP3 / Fold change vs veh, FUBP3 / RFU, TP53 / Fold change vs veh, TP53 / RFU, TNKS2 / Fold change vs veh, TNKS2 / RFU, ZFP14 / Fold change vs veh, ZFP14 / RFU, ACTR2 / Fold change vs veh, ACTR2 / RFU, PPP3R1 / Fold change vs veh, PPP3R1 / RFU, PIK3R1 / Fold change vs veh, PIK3R1 / RFU, HNRNPA1 / Fold change vs veh, HNRNPA1 / RFU, RNF170 / Fold change vs veh, RNF170 / RFU, ZNF28 / Fold change vs veh, ZNF28 / RFU, RNGTT / Fold change vs veh, RNGTT / RFU, OGT / Fold change vs veh, OGT / RFU, BRD1 / Fold change vs veh, BRD1 / RFU, MARS / Fold change vs veh, MARS / RFU, ZNF655 / Fold change vs veh, ZNF655 / RFU, FAHD1 / Fold change vs veh, FAHD1 / RFU, BDP1 / Fold change vs veh, BDP1 / RFU, LRRCC1 / Fold change vs veh, LRRCC1 / RFU, ARID1A / Fold change vs veh, ARID1A / RFU, ZNF146 / Fold change vs veh, ZNF146 / RFU, ZNF330 / Fold change vs veh, ZNF330 / RFU, GPN3 / Fold change vs veh, GPN3 / RFU, C9orf123 / Fold change vs veh, C9orf123 / RFU, N4BP2L2 / Fold change vs veh, N4BP2L2 / RFU, ARFIP1 / Fold change vs veh, ARFIP1 / RFU, FAM179B / Fold change vs veh, FAM179B / RFU, BCL10 / Fold change vs veh, BCL10 / RFU, UHRF1BP1L / Fold change vs veh, UHRF1BP1L / RFU, BET1 / Fold change vs veh, BET1 / RFU, CNOT2 / Fold change vs veh, CNOT2 / RFU, ZNF268 / Fold change vs veh, ZNF268 / Fold change vs veh, ZNF507 / RFU, DGCR2 / Fold change vs veh, DGCR2 / RFU, WDSUB1 / Fold change vs veh, WDSUB1 / Fold change vs veh, HSP90B1 /// MIR3652 / RFU, ADSS / Fold change vs veh, ADSS / RFU, GK / Fold change vs veh, GK / RFU, ZNF148 / Fold change vs veh, ZNF148 / RFU, TAF9 / Fold change vs veh, TAF9 / RFU, SLC1A5 / Fold change vs veh, SLC1A5 / RFU, SLMO2 / Fold change vs veh, SLMO2 / RFU, ABCC4 / Fold change vs veh, ABCC4 / RFU, LOC101060439 /// RAP1B / Fold change vs veh, LOC101060439 /// RAP1B / RFU, RFX7 / Fold change vs veh, RFX7 / RFU, GTPBP10 / Fold change vs veh, GTPBP10 / RFU, CNEP1R1 / Fold change vs veh, CNEP1R1 / RFU, BIVM-ERCC5 /// ERCC5 / Fold change vs veh, BIVM-ERCC5 /// ERCC5 / RFU, ILF3 / Fold change vs veh, ILF3 / RFU 11762660_at / Fold change /veh 11762660_at / RFU VCAN (11757783_s_at) / Fold change /veh VCAN (11757783_s_at) / RFU DDX43 (11728927_at) / Fold change /veh DDX43 (11728927_at) / RFU KRT8 (11758188_x_at) / Fold change /veh KRT8 (11758188_x_at) / RFU NKD1 (11759106_at) / Fold change /veh NKD1 (11759106_at) / RFU SRD5A1 (11742802_a_at) / Fold change /veh SRD5A1 (11742802_a_at) / RFU TPSAB1 /// TPSB2 (11721975_s_at) / Fold change /veh TPSAB1 /// TPSB2 (11721975_s_at) / RFU GSTM3 (11746129_a_at) / Fold change /veh GSTM3 (11746129_a_at) / RFU IL23R (11737362_x_at) / Fold change /veh IL23R (11737362_x_at) / RFU TMEM51 (11727254_a_at) / Fold change /veh TMEM51 (11727254_a_at) / RFU PIWIL2 (11732686_x_at) / Fold change /veh PIWIL2 (11732686_x_at) / RFU ORM1 (11744905_x_at) / Fold change /veh ORM1 (11744905_x_at) / RFU CCDC152 (11743942_at) / Fold change /veh CCDC152 (11743942_at) / RFU ECM1 (11717891_a_at) / Fold change /veh ECM1 (11717891_a_at) / RFU IL23R (11748794_a_at) / Fold change /veh IL23R (11748794_a_at) / RFU TNFAIP8L3 (11732012_x_at) / Fold change /veh TNFAIP8L3 (11732012_x_at) / RFU MBOAT4 (11741988_at) / Fold change /veh MBOAT4 (11741988_at) / RFU 11764193_at / Fold change /veh 11764193_at / RFU TMEM53 (11763286_at) / Fold change /veh TMEM53 (11763286_at) / RFU MAGEB2 (11727129_at) / Fold change /veh MAGEB2 (11727129_at) / RFU TMEM200A (11744735_a_at) / Fold change /veh TMEM200A (11744735_a_at) / RFU CCDC152 (11751479_a_at) / Fold change /veh CCDC152 (11751479_a_at) / RFU FAM211A (11726209_a_at) / Fold change /veh FAM211A (11726209_a_at) / RFU RGS16 (11746705_a_at) / Fold change /veh RGS16 (11746705_a_at) / RFU VCAN (11755009_s_at) / Fold change /veh VCAN (11755009_s_at) / RFU RHOB (11743442_s_at) / Fold change /veh RHOB (11743442_s_at) / RFU RGS16 (11720943_a_at) / Fold change /veh RGS16 (11720943_a_at) / RFU RGS16 (11720944_at) / Fold change /veh RGS16 (11720944_at) / RFU, VPS4B / Fold change vs veh, VPS4B / RFU, CREB1 / Fold change vs veh, CREB1 / RFU, DNAJC13 / Fold change vs veh, DNAJC13 / RFU, GNAQ / Fold change vs veh, GNAQ / RFU, CDK5R1 / Fold change vs veh, CDK5R1 / RFU, ZRANB3 / Fold change vs veh, ZRANB3 / RFU, CUL4A / Fold change vs veh, CUL4A / RFU, CCNY / Fold change vs veh, CCNY / RFU, UFL1 / Fold change vs veh, UFL1 / RFU, COG3 / Fold change vs veh, COG3 / RFU, DIAPH2 / Fold change vs veh, DIAPH2 / RFU, SKA2 / Fold change vs veh, SKA2 / RFU, AFF3 / Fold change vs veh, AFF3 / RFU, LMF1 / Fold change vs veh, LMF1 / RFU, IPO11 / Fold change vs veh, IPO11 / RFU, DFFB / Fold change vs veh, DFFB / RFU, FOXP1 / Fold change vs veh, FOXP1 / RFU, CARD8 / Fold change vs veh, CARD8 / RFU, STRN3 / Fold change vs veh, STRN3 / RFU, ADK / Fold change vs veh, ADK / RFU, RASSF2 / Fold change vs veh, RASSF2 / RFU, WIPF1 / Fold change vs veh, WIPF1 / RFU, LARP1B / Fold change vs veh, LARP1B / RFU, RASA1 / Fold change vs veh, RASA1 / RFU, RB1 / Fold change vs veh, RB1 / RFU, PPFIA1 / Fold change vs veh, PPFIA1 / RFU, MAT2A / Fold change vs veh, MAT2A / RFU, CCT5 / Fold change vs veh, CCT5 / RFU, WDR92 / Fold change vs veh, WDR92 / RFU, CUX1 / Fold change vs veh, CUX1 / RFU, TTC7A / Fold change vs veh, TTC7A / RFU, TMEM135 / Fold change vs veh, TMEM135 / RFU, DEPTOR / Fold change vs veh, DEPTOR / RFU, CPM / Fold change vs veh, CPM / RFU, DNAJB6 / Fold change vs veh, DNAJB6 / RFU, CACNA2D3 / Fold change vs veh, CACNA2D3 / RFU, DTX4 / Fold change vs veh, DTX4 / RFU, TFCP2 / Fold change vs veh, TFCP2 / RFU, GMCL1 /// GMCL1P1 / Fold change vs veh, GMCL1 /// GMCL1P1 / RFU, AEBP2 / Fold change vs veh, AEBP2 / RFU, SNHG1 /// SNORD22 /// SNORD25 /// SNORD26 /// SNORD27 /// SNORD28 /// SNORD29 /// SNORD31 / Fold change vs veh, SNHG1 /// SNORD22 /// SNORD25 /// SNORD26 /// SNORD27 /// SNORD28 /// SNORD29 /// SNORD31 / Fold change (Aza/veh), C12orf56 (ProbeSet 11735607_a_at) / Fold change (ACY-1035/veh), C12orf56 (ProbeSet 11735607_a_at) / Fold change (Aza/veh), FGFR1OP (ProbeSet 11751329_s_at) / Fold change (ACY-1035/veh), FGFR1OP (ProbeSet 11751329_s_at) / Fold change (Aza/veh), VPS36 (ProbeSet 11739960_a_at) / Fold change (ACY-1035/veh), VPS36 (ProbeSet 11739960_a_at) / RFU SYPL1 (11715823_x_at) / Fold change /veh SYPL1 (11715823_x_at) / RFU IGFBP7 (11715501_s_at) / Fold change /veh IGFBP7 (11715501_s_at) / RFU REEP3 (11722064_at) / Fold change /veh REEP3 (11722064_at) / RFU IGLL1 (11728026_x_at) / Fold change /veh IGLL1 (11728026_x_at): dose or concentration left out as unconfirmed
Conditions: MV-4-11 cells, 48 hours

## Nc1ccc(-c2cccs2)cc1NC(=O)c1ccc2c(c1)cc(C1CC1)n2CCN1CCOCC1 [ACY-1035]
  RFU RGS16 (11720944_at): 40.38 RFU
